Assay type in all cases: binding
The subject of assay [1] is human monoclonal antibody CRJA.
For assay [2], the system named is human monoclonal antibody CRJA. The source holds these as a separate data set.
The test system of assay [3] is human monoclonal antibody CR57.
The subject of assay [4] is human monoclonal antibody CR57. This is another data set of the same source.
For assay [5], the system named is human monoclonal antibody CRJB.
Assay [6] deals with human monoclonal antibody CRJB. The source holds these as a separate data set.

From patent publication US20060263802A1 (priority 2003, published 2006) come the findings set out here.

KCSGVAVSSTYCSTN: the “Binding of CRJA (10 μg/ml) to looped/cyclic peptide (PEPSCAN-ELISA signal)” value in assay [1] turned out to be 78. Also, the “Binding of CRJA to linear peptide (PEPSCAN-ELISA signal)” value (“Binding of CRJA to linear peptide” below) in assay [2] was found to be 111. Further, in assay [3], the “Binding of CR57 (10 μg/ml) to looped/cyclic peptide (PEPSCAN-ELISA signal)” value is given as 101. In addition, the “Binding of CR57 to linear peptide (PEPSCAN-ELISA signal)” value (shortened to “Binding of CR57 to linear peptide”) in assay [4] is given as 88. In addition, the “Binding of CRJB to linear peptide (PEPSCAN-ELISA signal)” value (“Binding of CRJB to linear peptide” for short) in assay [5] turned out to be 130. Also, the “Binding of CRJB (10 μg/ml) to looped/cyclic peptide (PEPSCAN-ELISA signal)” value in assay [6] is listed as 83.

For the sequence NLSGFSYMELKVGYI, the “Binding of CRJA (10 μg/ml) to looped/cyclic peptide (PEPSCAN-ELISA signal)” value in assay [1] was determined as 90. In addition, in assay [2], the “Binding of CRJA to linear peptide” value is 94. Moreover, the “Binding of CR57 (10 μg/ml) to looped/cyclic peptide (PEPSCAN-ELISA signal)” value in assay [3] stood at 68. Also, in assay [4], the “Binding of CR57 to linear peptide” value came out at 61. In addition, in assay [5], the “Binding of CRJB to linear peptide” value is given as 115. For the same sequence, the “Binding of CRJB (10 μg/ml) to looped/cyclic peptide (PEPSCAN-ELISA signal)” value in assay [6] came out at 83.

For the sequence DRSLHSRVFPSGKCS, the “Binding of CRJA (10 μg/ml) to looped/cyclic peptide (PEPSCAN-ELISA signal)” value in assay [1] was 99. Moreover, the “Binding of CRJA to linear peptide” value in assay [2] came to 187. The “Binding of CR57 (10 μg/ml) to looped/cyclic peptide (PEPSCAN-ELISA signal)” value in assay [3] is listed as 91. The “Binding of CR57 to linear peptide” value in assay [4] turned out to be 98. Also, the “Binding of CRJB to linear peptide” value in assay [5] turned out to be 142. The “Binding of CRJB (10 μg/ml) to looped/cyclic peptide (PEPSCAN-ELISA signal)” value in assay [6] is 100.

In the case of SLHNPYPDYRWLRTV, in assay [1], the “Binding of CRJA (10 μg/ml) to looped/cyclic peptide (PEPSCAN-ELISA signal)” value is recorded as 99. Besides, in assay [2], the “Binding of CRJA to linear peptide” value came out at 87. The “Binding of CR57 (10 μg/ml) to looped/cyclic peptide (PEPSCAN-ELISA signal)” value in assay [3] was 104. Besides, the “Binding of CR57 to linear peptide” value in assay [4] came out at 78. For the same sequence, in assay [5], the “Binding of CRJB to linear peptide” value stood at 111. Moreover, the “Binding of CRJB (10 μg/ml) to looped/cyclic peptide (PEPSCAN-ELISA signal)” value in assay [6] is 90.

Consider DPSTVFKDGDEAEDF, for which the “Binding of CRJA to looped/cyclic peptide (PEPSCAN-ELISA signal)” value in assay [1] turned out to be 110. Also, the “Binding of human monoclonal antibody CRJA to linear peptide (PEPSCAN-ELISA signal)” value in assay [2] is reported as 132. Also, the “Binding of CR57 to looped/cyclic peptide (PEPSCAN-ELISA signal)” value in assay [3] is recorded as 134. In assay [4], the “Binding of human monoclonal antibody CR57 to linear peptide (PEPSCAN-ELISA signal)” value amounted to 98. The “Binding of human monoclonal antibody CRJB to linear peptide (PEPSCAN-ELISA signal)” value in assay [5] came to 147. For the same sequence, the “Binding of CRJB to looped/cyclic peptide (PEPSCAN-ELISA signal)” value in assay [6] is listed as 110.

For ELVRKREECLDALES, the “Binding of CRJA (10 μg/ml) to looped/cyclic peptide (PEPSCAN-ELISA)” value in assay [1] amounted to 98. Moreover, the “Binding of CRJA to linear peptide” value in assay [2] came out at 97. Further, in assay [3], the “Binding of CR57 (10 μg/ml) to looped/cyclic peptide (PEPSCAN-ELISA)” value turned out to be 93. The “Binding of CR57 to linear peptide” value in assay [4] was found to be 82. In addition, in assay [5], the “Binding of CRJB to linear peptide” value came out at 113. In assay [6], the “Binding of CRJB (10 μg/ml) to looped/cyclic peptide (PEPSCAN-ELISA)” value amounted to 71.

As for HDFRSDEIEHLVVEE, the “Binding of CRJA (10 μg/ml) to looped/cyclic peptide (PEPSCAN-ELISA)” value in assay [1] turned out to be 111. Further, the “Binding of CRJA to linear peptide” value in assay [2] is on record as 78. Also, the “Binding of CR57 (10 μg/ml) to looped/cyclic peptide (PEPSCAN-ELISA)” value in assay [3] came to 24. In assay [4], the “Binding of CR57 to linear peptide” value stood at 69. In addition, the “Binding of CRJB to linear peptide” value in assay [5] is recorded as 107. In addition, the “Binding of CRJB (10 μg/ml) to looped/cyclic peptide (PEPSCAN-ELISA)” value in assay [6] worked out at 79.

With PDQLVNLHDFRSDEI, in assay [1], the “Binding of CRJA (10 μg/ml) to looped/cyclic peptide (PEPSCAN-ELISA)” value worked out at 46. Further, the “Binding of CRJA to linear peptide” value in assay [2] is 43. In addition, the “Binding of CR57 (10 μg/ml) to looped/cyclic peptide (PEPSCAN-ELISA)” value in assay [3] is reported as 70. The “Binding of CR57 to linear peptide” value in assay [4] stood at 35. Moreover, in assay [5], the “Binding of CRJB to linear peptide” value worked out at 106. In addition, the “Binding of CRJB (10 μg/ml) to looped/cyclic peptide (PEPSCAN-ELISA)” value in assay [6] turned out to be 73.

For GFVDERGLYKSLKGA, the “Binding of CRJA (10 μg/ml) to looped/cyclic peptide (PEPSCAN-ELISA)” value in assay [1] was found to be 87. Further, in assay [2], the “Binding of CRJA to linear peptide” value was determined as 104. Moreover, the “Binding of CR57 (10 μg/ml) to looped/cyclic peptide (PEPSCAN-ELISA)” value in assay [3] is recorded as 107. For the same sequence, the “Binding of CR57 to linear peptide” value in assay [4] was found to be 84. The “Binding of CRJB to linear peptide” value in assay [5] worked out at 120. For the same sequence, the “Binding of CRJB (10 μg/ml) to looped/cyclic peptide (PEPSCAN-ELISA)” value in assay [6] is listed as 86.

RWLRTVKTTKESLVI: in assay [1], the “Binding of CRJA (10 μg/ml) to looped/cyclic peptide (PEPSCAN-ELISA signal)” value turned out to be 71. For the same sequence, the “Binding of CRJA to linear peptide” value in assay [2] is listed as 72. Further, the “Binding of CR57 (10 μg/ml) to looped/cyclic peptide (PEPSCAN-ELISA signal)” value in assay [3] amounted to 77. Further, in assay [4], the “Binding of CR57 to linear peptide” value amounted to 40. Besides, the “Binding of CRJB to linear peptide” value in assay [5] was 110. Moreover, the “Binding of CRJB (10 μg/ml) to looped/cyclic peptide (PEPSCAN-ELISA signal)” value in assay [6] is 75.
